Assay results: PubChem BioAssay (NCI)
Values joined by “and” are separate entries in the source; they are usually repeats but may differ in a detail not shown here. Equal entries are not always repeated.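 How tested: cells in 96-well plates exposed to compound for 48 hours at five concentrations. At the GI50, growth is halved. TGI denotes the concentration required for complete inhibition of growth.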

Tests used:
Assay in all cases: DTP human tumour cell line panel, 48 h
[1] = tested on: MDA-MB-435
[2] = tested on: HS 578T breast
[3] = tested on: UO-31 renal
[4] = tested on: U251 CNS
[5] = tested on: DU-145 prostate
[6] = tested on: MDA-MB-231 breast
[7] = tested on: T-47D breast
[8] = tested on: OVCAR-3 ovarian
[9] = tested on: A549 NSCLC
[10] = tested on: HT29 colon

SMILES | GI50 [1] | TGI [1] | GI50 [2] | TGI [2] [µM] | GI50 [3] | TGI [3] | GI50 [4] | TGI [4] | GI50 [5] | TGI [5] | GI50 [6] | TGI [6] | GI50 [7] | TGI [7] | GI50 [8] | TGI [8] | GI50 [9] | TGI [9] [µM] | GI50 [10] | TGI [10] [µM]
O=[N+]([O-])/C(=C/C=C/c1ccccc1)c1ccccc1 | 2.12 µM | 4.92 µM | 2.86 µM | 8.41 | 1.46 µM | 3.19 µM | 1.67 µM | 3.17 µM | 1.76 µM | 3.22 µM | 1.92 µM | 4.28 µM | 2.07 µM | 5.28 µM | 1.85 µM | 3.29 µM | 2.41 µM | 6.79 | 3.23 µM | 7.18
CCOc1ccc(N=Nc2c(-c3ccccc3)nn(C(=O)CC(=O)Nc3ccccc3Cl)c2-c2ccccc2)cc1 | – | – | – | – | – | > 100 µM | – | > 100 µM | – | – | – | – | – | – | – | > 100 µM | – | > 100 | – | > 100
O=C(Nc1ccc(-n2cc(-c3ccncc3)c(-c3ccc(Cl)c(O)c3)n2)cc1)c1ccc(Cl)c(Cl)c1 | 2.73 µM | > 100 µM | 3.83 µM | > 100 | 2.83 µM | 8.62 µM | 2.65 µM | > 100 µM | > 100 µM | > 100 µM | 1.17 µM | > 100 µM | 8.09 µM | > 100 µM | > 100 µM | > 100 µM | 6.71 µM | > 100 | 2.6 µM | > 100
CC(C)(C)c1cnc(CSc2cnc(NC(=O)C3CCNCC3)s2)o1 | 0.189 µM and 0.232 µM | 0.905 µM and 1.07 µM | 0.334 µM and 0.226 µM | > 2.64 | 5.6 µM and 2.07 µM | 21.7 µM and > 8.99 µM | 0.193 µM and 0.2 µM | 27.6 µM and > 10 µM | 0.184 µM and 0.254 µM | 5.53 µM and > 10 µM | 0.214 µM and 0.234 µM | 5.34 µM and > 6.43 µM | 0.251 µM and 0.225 µM | 0.847 µM and > 4.35 µM | 0.223 µM and 0.181 µM | 3.61 µM and > 2.95 µM | 0.256 µM and 0.23 µM | > 10 | 0.181 µM and 0.182 µM | –
COc1ccc(C2=NOC3=c4ccccc4=CSC3=C2c2ccccc2)cc1 | 42.9 µM | > 100 µM | 47.4 µM | > 100 | 39.2 µM | > 100 µM | 25.2 µM | > 100 µM | 19.8 µM | > 100 µM | 20.3 µM | 76 µM | 30.3 µM | 73.9 µM | 25 µM | 79.5 µM | > 100 µM | > 100 | 37.1 µM | > 100
Nc1cccc(C(=O)/C=C/c2ccccc2O)c1 | – | – | – | – | – | > 100 µM | – | > 100 µM | – | – | – | – | – | – | – | > 100 µM | – | > 100 | – | > 100
CCOC(=O)C(=O)Nc1nc2ccc(OC)cc2s1 | – | – | – | – | – | > 100 µM | – | > 100 µM | – | – | – | – | – | – | – | > 100 µM | – | > 100 | – | > 100
Cc1cccc(NC(=O)CSc2nnc(-c3ccc(N=Cc4ccc(Cl)cc4)cc3)o2)c1 | – | – | – | – | – | > 100 µM | – | > 100 µM | – | – | – | – | – | – | – | – | – | > 100 | – | > 100
O=C(N[C@H]1CC2(C=C(I)C(=O)C(I)=C2)OC1=O)OCc1ccccc1 | – | – | – | – | – | 32.1 µM | – | 31.5 µM | – | – | – | – | – | – | – | 31.3 µM | – | > 100 | – | 35.8
COc1cc(C(=O)/C=C/c2c(C)n([O-])c3ccc(Cl)cc3[n+]2=O)cc(OC)c1OC | 3.4 µM | > 100 µM | 1.75 µM | 8.97 | 1.82 µM | 18.1 µM | 4.52 µM | 72.3 µM | 4.2 µM | > 100 µM | 12.9 µM | > 100 µM | 3.18 µM | 27.9 µM | 1.76 µM | 7.98 µM | 25.4 µM | > 100 | 3.94 µM | > 100
Cc1ccc(-n2cc(/C(N)=N/O)c3ccccc3c2=O)cc1 | – | – | – | – | – | > 100 µM | – | > 100 µM | – | – | – | – | – | – | – | > 100 µM | – | > 100 | – | > 100
C=C(/C=C/C=C(\CO)CCC=C(C)C)[C@H]1CCC2([C@H](CCCO)/C(=C(/C)C=O)CC[C@]2(C)O)[C@H]1O (stereo not given in full) | – | – | – | – | – | – | – | > 100 µM | – | – | – | – | – | – | – | > 100 µM | – | > 100 | – | > 100
CN(C)CN(C)c1nc(N(C)C)nc(N(C)C)n1 | – | – | – | – | – | > 100 µM | – | > 100 µM | – | – | – | – | – | – | – | > 100 µM | – | > 100 | – | > 100
Cc1cc2nc3c(C(OC4OC(CO)C(O)C(O)C4O)C(O)CO)nn(-c4ccc(F)cc4)c3nc2cc1C (stereo not given) | – | – | – | – | – | > 100 µM | – | > 100 µM | – | – | – | – | – | – | – | > 100 µM | – | – | – | > 100
c1ccc2c(c1)n1nnnc1c1nnnn21 | – | – | – | – | – | > 100 µM | – | > 100 µM | – | – | – | – | – | – | – | > 100 µM | – | > 100 | – | > 100
C=C(c1ccc(C(=O)NCCCn2ccnc2)cc1)c1cc2c(cc1C)C(C)(C)CCC2(C)C | 0.0734 µM | 16 µM | – | – | 3.93 µM | 17.7 µM | 0.288 µM | 3.29 µM | 0.744 µM | > 62.5 µM | 1.44 µM | 9.78 µM | 0.281 µM | 6.76 µM | 1.69 µM | 6.09 µM | 1.14 µM | 16.4 | 0.509 µM | 6.8
CC(C)(C)OC(=O)CC(S(=O)(=O)c1ccccc1)S(=O)(=O)c1ccccc1 | 13.8 µM | 26.7 µM | 22 µM | 81.4 | 2.9 µM | 10.4 µM | 17.2 µM | 35.9 µM | 15.2 µM | 28.8 µM | 12 µM | 25.7 µM | 2.32 µM | 4.48 µM | 1.88 µM | 3.29 µM | 18.3 µM | 38.9 | – | –
c1ccc(-c2nc3ccccc3[nH]2)c(OCCCCCOc2ccccc2-c2nc3ccccc3[nH]2)c1 | 11.3 µM | 29.3 µM | 15.4 µM | 41 | 11 µM | 36 µM | 12.5 µM | 25.6 µM | 3.82 µM | 14.8 µM | 12.2 µM | 29.3 µM | 3.18 µM | 18.6 µM | 12 µM | 24.7 µM | – | – | 12.1 µM | 44.1
